The text below walks through data of US20250228239A1, “MOLECULES HAVING PESTICIDAL UTILITY, AND INTERMEDIATES, COMPOSITIONS, AND PROCESSES, RELATED THERETO” (priority 2024, published 2025).

Structures are written as SMILES. Like-named read-outs stand apart in the source and are kept apart here.

Holding throughout (assay type): in vivo
Data set [1] relates to Cabbage Looper (Trichoplusia ni, TRIPNI). Kind of data set: Bioassays on Cabbage Looper (CL), 128-well diet tray assay. Conditions: Trichoplusia ni. Put shortly: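 Second-instar larvae (1–5 per well) placed on artificial diet surface-treated with 50 μg/cm^2 test molecule applied in 90:10 acetone-water and dried. Held at 25° C., 14:10 light-dark, for five to seven days. Percent mortality scored per well and averaged over eight wells.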

Data set [2] has as its system Yellow Fever Mosquito (Aedes aegypti, AEDSAE). The settings on record: for YFM rating: Table ABC / ABC-DP rating. As to the method: Certain molecules disclosed in this document were tested against YFM using procedures described in the following paragraph. In the reporting of the results, the “GPA & YFM Rating Table” was used (See Table Section).
Master plates containing 400 μg of a molecule dissolved in 100 μL of dimethyl sulfoxide (DMSO) (equivalent to a 4000 ppm solution) are used. A master plate of assembled molecules contains 15 μL per well. To this plate, 135 μL of a 90:10 water/acetone mixture is added to each well. A robot (Biomek® NXP Laboratory Automation Workstation) is programmed to dispense 15 μL aspirations from the master plate into an empty 96-well shallow plate (“daughter” plate). There are 6 reps (“daughter” plates) created per master. The created “daughter” plates are then immediately infested with YFM larvae.
The day before plates are to be treated, mosquito eggs are placed in Millipore water containing liver powder to begin hatching (4 g into 400 mL). After the “daughter” plates are created using the robot, they are infested with 220 μL of the liver powder/larval mosquito mixture (about 1 day-old larvae). After plates are infested with mosquito larvae, a non-evaporative lid is used to cover the plate to reduce drying. Plates are held at room temperature for 3 days prior to grading. After 3 days, each well is observed and scored based on mortality. The results are indicated in the table entitled “Table ABC: Biological Results” (See Table Section).

Data set [3] concerns Beet Armyworm (Spodoptera exigua, LAPHEG). The data set can be described thus: Bioassays on Beet Armyworm (BAW), 128-well diet tray assay. The settings on record: Spodoptera exigua. In outline: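 Percent larval mortality, averaged across eight wells, scored after five to seven days at 25° C. under 14:10 light-dark. Each well held one to five second instars feeding on diet dosed at 50 μg/cm^2 with compound from 90:10 acetone-water, solvent dried off.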

Setting [4] is: Cabbage Looper, rating class, read-out: CL.
The mark [5] stands for this setting: Yellow Fever Mosquito, rating class.
The mark [6] stands for this setting: Beet Armyworm, rating class, read-out: BAW.
Setting [7] is: Cabbage Looper, Table ABC / ABC-DP rating, read-out: CL rating.
Where [8] appears, read: Beet Armyworm, Table ABC / ABC-DP rating, read-out: BAW rating.
Where [9] appears, read: Table ABC: Biological Results, species CL, read-out: CL.
Setting [10] is: Table ABC: Biological Results, species YFM.
Where [11] appears, read: Table ABC: Biological Results, species BAW, read-out: BAW.

`O=C(Nc1ccc(F)c(NC(=O)C(F)F)c1F)c1cc(NC(=O)[C@H]2[C@H](c3ccc(F)c(Br)c3)C2(Cl)Cl)ccc1Cl` [F1410, 5-((1R,3R)-3-(3-Bromo-4-fluorophenyl)-2,2-dichlorocyclopropane-1-carboxamido)-2-chloro-N-(3-(2,2-difluoroacetamido)-2,4-difluorophenyl)benzamide]: the pest or weed control at 50 µg/cm2 in data set [1] (setting [4]) and in data set [3] (setting [6]) was 50 to 100% in each case. Besides, in data set [2] (setting [5]), the YFM result is recorded as “A (80–100)”.

Consider `C=CCC(=O)Nc1c(F)ccc(NC(=O)c2cc(NC(=O)[C@H]3[C@H](c4cc(F)cc(C(F)(F)F)c4)C3(Cl)Cl)ccc2Cl)c1F` [F1879, N-(3-(But-3-enamido)-2,4-difluorophenyl)-2-chloro-5-((1R,3R)-2,2-dichloro-3-(3-fluoro-5-(trifluoromethyl)phenyl)cyclopropane-1-carboxamido)benzamide], for which the pest or weed control at 50 µg/cm2 in data set [1] (setting [7]) and in data set [3] (setting [8]) was 50 to 100% each time. For the same molecule, the YFM rating entry in data set [2] (Yellow Fever Mosquito) is given as “A (80–100)”.

Regarding `O=C(Nc1ccc(F)c(NC(=O)C(F)(F)F)c1F)c1cc(NC(=O)[C@H]2[C@H](c3cc(Cl)c(Cl)c(Cl)c3)C2(Cl)Cl)cc(F)c1F` [F1438, 5-((1R,3R)-2,2-Dichloro-3-(3,4,5-trichlorophenyl)cyclopropane-1-carboxamido)-N-(2,4-difluoro-3-(2,2,2-trifluoroacetamido)phenyl)-2,3-difluorobenzamide], the pest or weed control at 50 µg/cm2 in data set [1] (setting [4]) and in data set [3] (setting [6]) was 50 to 100% throughout. Also, the YFM result in data set [2] (setting [5]) is “A (80–100)”.

On to `Cc1cc([C@H]2[C@H](C(=O)Nc3ccc(Cl)c(C(=O)Nc4ccc(F)cc4F)c3)C2(Cl)Cl)cc(C(F)(F)F)c1F` (relative stereo) [F1066, trans-2-Chloro-5-(2,2-dichloro-3-(4-fluoro-3-methyl-5-(trifluoromethyl)phenyl)cyclopropane-1-carboxamido)-N-(2,4-difluorophenyl)benzamide], for which the pest or weed control at 50 µg/cm2 in data set [1] (setting [9]) and in data set [3] (setting [11]) was 50 to 100% each time. Further, in data set [2] (setting [10]), the YFM entry is given as “A (80–100)”.

For `O=C(NNc1ccc([N+](=O)[O-])cc1)c1cc(NC(=O)[C@H]2[C@H](c3cc(Cl)cc(Cl)c3)C2(Cl)Cl)ccc1Cl` (relative stereo) [F2555, trans-2,2-Dichloro-N-(4-chloro-3-(2-(4-nitrophenyl)hydrazine-1-carbonyl)phenyl)-3-(3,5-dichlorophenyl)cyclopropane-1-carboxamide], the pest or weed control at 50 µg/cm2 in data set [1] (setting [7]) and in data set [3] (setting [8]) was 50 to 100% in each case. The YFM rating result in data set [2] (Yellow Fever Mosquito) is recorded as “A (80–100)”.

Consider `O=C(NCC(F)(F)c1ccccc1)c1cc(NC(=O)[C@H]2[C@H](c3cc(Cl)cc(Cl)c3)C2(Cl)Cl)cc(F)c1Cl` (relative stereo) [F2091, trans-2-Chloro-5-(2,2-dichloro-3-(3,5-dichlorophenyl)cyclopropane-1-carboxamido)-N-(2,2-difluoro-2-phenylethyl)-3-fluorobenzamide], for which the pest or weed control at 50 µg/cm2 in data set [1] (setting [7]) and in data set [3] (setting [8]) was 50 to 100% each time. Further, the YFM rating entry in data set [2] (Yellow Fever Mosquito) is listed as “A (80–100)”.

`O=C(NNc1ccc(OC(F)(F)C(F)(F)F)cc1)c1cc(NC(=O)[C@H]2[C@H](c3cc(Cl)cc(Cl)c3)C2(Cl)Cl)ccc1Cl` (relative stereo) [F2565, trans-2,2-Dichloro-N-(4-chloro-3-(2-(4-(perfluoroethoxy)phenyl)hydrazine-1-carbonyl)phenyl)-3-(3,5-dichlorophenyl)cyclopropane-1-carboxamide]: the mortality at 50 µg/cm2 in data set [1] (168 h, second instar larvae, 50 μg/cm^2 of test molecule on artificial diet, 25° C., five to seven days, average of eight wells, read-out: CL % Control (or Mortality) rating) is 50 to 100%; in data set [3] (168 h, second instar larvae, 50 μg/cm^2 of test molecule on artificial diet, 25° C., five to seven days, average of eight wells, read-out: BAW % Control (or Mortality) rating) it was 50 to 100%. The pest or weed control at 50 µg/cm2 in data set [1] (setting [7]) and in data set [3] (setting [8]) was 50 to 100% throughout. In addition, the “YFM % Control (or Mortality) rating” value in data set [2] (about 1 day-old larvae, 4000 ppm master solution diluted with 90:10 water/acetone, 15 μL per well plus 220 μL larval mixture, 3 days, mortality) was “D (No activity noticed in this bioassay)”.

Regarding `Cc1cc(NCc2ccc([N+](=O)[O-])cc2)ccc1NC(=O)c1cc(NC(=O)[C@H]2[C@H](c3cc(Cl)cc(Cl)c3)C2(Cl)Cl)ccc1Cl` (relative stereo) [F1166, trans-2-Chloro-5-(2,2-dichloro-3-(3,5-dichlorophenyl)cyclopropane-1-carboxamido)-N-(2-methyl-4-((4-nitrobenzyl)amino)phenyl)benzamide], the pest or weed control at 50 µg/cm2 in data set [1] (setting [9]) and in data set [3] (setting [11]) was 50 to 100% each time. In data set [2] (setting [10]), the YFM result is on record as “A (80–100)”.

As to `CN(C(=O)c1cc(NC(=O)[C@H]2[C@H](c3ccc(Cl)c(Cl)c3)C2(Cl)Cl)ccc1Cl)c1ccc(F)c(NC(=O)C(F)(F)F)c1F` [F1792, 2-Chloro-5-((1R,3R)-2,2-dichloro-3-(3,4-dichlorophenyl)cyclopropane-1-carboxamido)-N-(2,4-difluoro-3-(2,2,2-trifluoroacetamido)phenyl)-N-methylbenzamide], the pest or weed control at 50 µg/cm2 in data set [1] (setting [7]) and in data set [3] (setting [8]) was 50 to 100% throughout. The YFM rating result in data set [2] (Yellow Fever Mosquito) is on record as “A (80–100)”.

As for `O=C(Nc1ccc(F)c(NC(=O)C(F)(F)F)c1)c1cc(NC(=O)[C@H]2[C@H](c3cc(Cl)cc(Cl)c3)C2(Cl)Cl)ccc1Cl` [F1813, 2-Chloro-5-((1R,3R)-2,2-dichloro-3-(3,5-dichlorophenyl)cyclopropane-1-carboxamido)-N-(4-fluoro-3-(2,2,2-trifluoroacetamido)phenyl)benzamide], the pest or weed control at 50 µg/cm2 in data set [1] (setting [7]) and in data set [3] (setting [8]) was 50 to 100% each time. Further, in data set [2] (Yellow Fever Mosquito), the YFM rating result is “A (80–100)”.

`O=C(Nc1ccc(F)c(NC(=O)[C@@H]2CCCO2)c1F)c1cc(NC(=O)[C@H]2[C@H](c3ccc(F)c(C(F)(F)F)c3)C2(Cl)Cl)ccc1Cl` [F1692, (S)—N-(3-(2-Chloro-5-((1R,3R)-2,2-dichloro-3-(4-fluoro-3-(trifluoromethyl)phenyl)cyclopropane-1-carboxamido)benzamido)-2,6-difluorophenyl)tetrahydrofuran-2-carboxamide]: the pest or weed control at 50 µg/cm2 in data set [1] (setting [4]) and in data set [3] (setting [6]) was 50 to 100% throughout. In addition, in data set [2] (setting [5]), the YFM entry is on record as “B (More than 0 – Less than 80)”.

Turning to `O=C(NCCC(F)(F)F)c1c(Cl)ccc(NC(=O)[C@H]2[C@H](c3ccc(F)c(Cl)c3)C2(Cl)Cl)c1Cl` (relative stereo) [F2024, trans-2,6-Dichloro-3-(2,2-dichloro-3-(3-chloro-4-fluorophenyl)cyclopropane-1-carboxamido)-N-(3,3,3-trifluoropropyl)benzamide], the pest or weed control at 50 µg/cm2 in data set [1] (setting [7]) and in data set [3] (setting [8]) was 50 to 100% throughout. In addition, the YFM rating entry in data set [2] (Yellow Fever Mosquito) is listed as “A (80–100)”.

Regarding `O=C(NCCCCl)c1c(F)ccc(NC(=O)[C@H]2[C@H](c3ccc(F)c(Cl)c3)C2(Cl)Cl)c1F` (relative stereo) [F2028, trans-N-(3-Chloropropyl)-3-(2,2-dichloro-3-(3-chloro-4-fluorophenyl)cyclopropane-1-carboxamido)-2,6-difluorobenzamide], the pest or weed control at 50 µg/cm2 in data set [1] (setting [7]) and in data set [3] (setting [8]) was 50 to 100% each time. Moreover, in data set [2] (Yellow Fever Mosquito), the YFM rating entry is “A (80–100)”.

As to `CCOC(C)C(=O)Nc1c(F)ccc(NC(=O)c2cc(NC(=O)[C@H]3[C@H](c4cc(Cl)c(Cl)c(Cl)c4)C3(Cl)Cl)ccc2Cl)c1F` (stereo partly drawn) [F1645, 2-Chloro-5-((1R,3R)-2,2-dichloro-3-(3,4,5-trichlorophenyl)cyclopropane-1-carboxamido)-N-(3-(2-ethoxypropanamido)-2,4-difluorophenyl)benzamide], the pest or weed control at 50 µg/cm2 in data set [1] (setting [4]) and in data set [3] (setting [6]) was 50 to 100% throughout. The YFM result in data set [2] (setting [5]) is recorded as “A (80–100)”.

In the case of `CC(=O)OCN(C(=O)c1cc(NC(=O)[C@H]2[C@H](c3cc(Cl)cc(Cl)c3)C2(Cl)Cl)ccc1Cl)c1ccc(F)cc1C#N` (relative stereo) [F1084, trans-(2-Chloro-N-(2-cyano-4-fluorophenyl)-5-(2,2-dichloro-3-(3,5-dichlorophenyl)cyclopropane-1-carboxamido)benzamido)methyl acetate], the pest or weed control at 50 µg/cm2 in data set [1] (setting [9]) and in data set [3] (setting [11]) was 50 to 100% in each case. Also, the YFM entry in data set [2] (setting [10]) is “A (80–100)”.

In general, mortality refers to the percentage killed.
